Values joined by “and” are separate entries in the source; they are usually repeats but may differ in a detail not shown here. Equal values may be shown once. Where a name gives a salt, the structure may show the parent alone.
System: Long Evans rats
Assay: Behavioral satiety sequence (BSS)
Type: in vivo, Long Evans rat
Description: The Behavioural Satiety Sequence (BSS) is a technique used to evaluate physiological satiety. It is based on the expression of a sequence of behaviors including eating, grooming, locomotor activity, followed by resting, which are typically observed in rodents post-ingestion (Halford et al, 1998, Pharmacology Biochemistry and Behaviour. 61(2): 159-168). The BSS is a widely used model for determining the effects of novel pharmaceuticals on food intake and measures of satiety in rodents (Oliveira et al, 2011, Revista de Nutrição. 24(4) 619-628), and to discriminate the cause of reduced food intake following pharmacological manipulation. For example, treatments that may reduce food intake by non-specific mechanisms, such as immobility, malaise, and taste adulteration, will disrupt this sequence (Halford et al, 1998, Pharmacology Biochemistry and Behaviour. 61(2): 159-168).
Specifically, 12 male Long-Evans rats were food-deprived for 22 h with a 2 h feeding period each day. Rats were trained to consume daily food during the 2 h period over 25 days. The testing phase was initiated once the rats consistently consumed 16-18 g of food per day with ≤10% variance in amount of feed consumed. Feeding took place in designated individual boxes in a quiet room separate from the housing room. Continuous remote monitoring via video camera during feeding was used to assess the BSS. Food consumption was measured by weighing the total available food before and after the 2 h feeding window, correcting for spillage. Lorcaserin (1 mg/kg) was included as a reference control (Higgins et al, 2011, Neuropsychopharmacology. 37(5): 1177-1191). Subjects were tested using a repeated-measures, Latin square design with 2-3 days wash-out between treatment cycles.
On scheduled test days, animals were monitored remotely via video camera during the feeding access period. The occurrence of four mutually exclusive behaviors (eating/drinking, grooming, active, rest) were individually scored. Over the 2 h feeding period, behaviors were assessed every 30 seconds. Scores were compiled into 23 5 min timebins (timebin 24 was removed due to early removal of animals) and the frequency of each behavior within each timebin was calculated to determine a temporal frequency of each measure (Rodgers et al, 2010, Pharmacology Biochemistry and Behaviour. 97: 3-14). Percentage time was plotted for each behavioral sequence in each timebin to compare between treatment groups (Higgins et al, 2011, Neuropsychopharmacology. 37(5): 1177-1191).

[1] = 1 mg/kg, AVG of animals LT-1 to LT-12
[2] = 1 mg/kg, raw score per animal LT-1 to LT-12, hydrochloride
[3] = Lorcaserin 1 mg/kg s.c., AVG of the group
[4] = Lorcaserin 1 mg/kg s.c., raw score per animal, hydrochloride

## C[C@H]1CNCCc2ccc(Cl)cc21 [lorcaserin, Lorcaserin hydrochloride, reference compound]
[1]
  BSS scoring A (active), Time Bin 13 (60-65 TOTAL), AVG: 0.20
  BSS scoring A (active), Time Bin 14 (65-70 TOTAL), AVG: 0.20
  BSS scoring A (active), Time Bin 15 (70-75 TOTAL), AVG: 0.12
  BSS scoring A (active), Time Bin 16 (75-80 TOTAL), AVG: 0.06
  BSS scoring A (active), Time Bin 17 (80-85 TOTAL), AVG: 0.07
  BSS scoring A (active), Time Bin 18 (85-90 TOTAL), AVG: 0.13
  BSS scoring E (eating/drinking), Time Bin 13 (60-65 TOTAL), AVG: 0.66
  BSS scoring E (eating/drinking), Time Bin 14 (65-70 TOTAL), AVG: 0.65
  BSS scoring E (eating/drinking), Time Bin 15 (70-75 TOTAL), AVG: 0.70
  BSS scoring E (eating/drinking), Time Bin 16 (75-80 TOTAL), AVG: 0.83
  BSS scoring E (eating/drinking), Time Bin 17 (80-85 TOTAL), AVG: 0.84
  BSS scoring E (eating/drinking), Time Bin 18 (85-90 TOTAL), AVG: 0.73
  BSS scoring G (grooming), Time Bin 13 (60-65 TOTAL), AVG: 0.07
  BSS scoring G (grooming), Time Bin 14 (65-70 TOTAL), AVG: 0.04
  BSS scoring G (grooming), Time Bin 15 (70-75 TOTAL), AVG: 0.12
  BSS scoring G (grooming), Time Bin 16 (75-80 TOTAL), AVG: 0.08
  BSS scoring G (grooming), Time Bin 17 (80-85 TOTAL), AVG: 0.04
  BSS scoring G (grooming), Time Bin 18 (85-90 TOTAL), AVG: 0.10
  BSS scoring R (resting), Time Bin 13 (60-65 TOTAL), AVG: 0.08
  BSS scoring R (resting), Time Bin 14 (65-70 TOTAL), AVG: 0.11
  BSS scoring R (resting), Time Bin 15 (70-75 TOTAL), AVG: 0.07
  BSS scoring R (resting), Time Bin 16 (75-80 TOTAL), AVG: 0.03
  BSS scoring R (resting), Time Bin 17 (80-85 TOTAL), AVG: 0.05
  BSS scoring R (resting), Time Bin 18 (85-90 TOTAL), AVG: 0.03
[2]
  BSS scoring A (active), Time Bin 13 (60-65 TOTAL): 6 and 5 and 2 (2×) and 1 (2×) and 0 (4×) and 4 and 3
  BSS scoring A (active), Time Bin 14 (65-70 TOTAL): 4 (3×) and 2 (4×) and 0 and 1 (4×)
  BSS scoring A (active), Time Bin 15 (70-75 TOTAL): 0 (5×) and 1 (4×) and 4 (2×) and 2
  BSS scoring A (active), Time Bin 16 (75-80 TOTAL): 0 (9×) and 2 and 1 and 4
  BSS scoring A (active), Time Bin 17 (80-85 TOTAL): 0 (8×) and 2 (4×)
  BSS scoring A (active), Time Bin 18 (85-90 TOTAL): 4 and 0 (5×) and 1 (4×) and 6 and 2
  BSS scoring E (eating/drinking), Time Bin 13 (60-65 TOTAL): 4 and 3 and 6 and 5 (2×) and 7 (2×) and 8 (3×) and 9 (2×)
  BSS scoring E (eating/drinking), Time Bin 14 (65-70 TOTAL): 6 (2×) and 5 and 7 and 10 and 4 (2×) and 8 (3×) and 3 and 9
  BSS scoring E (eating/drinking), Time Bin 15 (70-75 TOTAL): 6 (3×) and 9 (4×) and 2 and 10 and 3 and 8 and 7
  BSS scoring E (eating/drinking), Time Bin 16 (75-80 TOTAL): 10 (7×) and 1 and 9 (2×) and 5 and 6
  BSS scoring E (eating/drinking), Time Bin 17 (80-85 TOTAL): 8 (3×) and 9 (3×) and 10 (3×) and 7 (2×) and 6
  BSS scoring E (eating/drinking), Time Bin 18 (85-90 TOTAL): 4 and 9 (2×) and 6 (2×) and 10 (3×) and 7 (3×) and 3
  BSS scoring G (grooming), Time Bin 13 (60-65 TOTAL): 0 (8×) and 2 (2×) and 3 and 1
  BSS scoring G (grooming), Time Bin 14 (65-70 TOTAL): 0 (8×) and 1 (3×) and 2
  BSS scoring G (grooming), Time Bin 15 (70-75 TOTAL): 0 (6×) and 3 and 1 (4×) and 7
  BSS scoring G (grooming), Time Bin 16 (75-80 TOTAL): 0 (10×) and 6 and 3
  BSS scoring G (grooming), Time Bin 17 (80-85 TOTAL): 0 (8×) and 1 (3×) and 2
  BSS scoring G (grooming), Time Bin 18 (85-90 TOTAL): 2 (3×) and 1 (3×) and 0 (5×) and 3
  BSS scoring R (resting), Time Bin 13 (60-65 TOTAL): 0 (7×) and 2 and 4 and 1 (3×)
  BSS scoring R (resting), Time Bin 14 (65-70 TOTAL): 0 (7×) and 1 (2×) and 4 (2×) and 3
  BSS scoring R (resting), Time Bin 15 (70-75 TOTAL): 4 and 1 (2×) and 0 (8×) and 2
  BSS scoring R (resting), Time Bin 16 (75-80 TOTAL): 0 (9×) and 1 (2×) and 2
  BSS scoring R (resting), Time Bin 17 (80-85 TOTAL): 2 (2×) and 1 (2×) and 0 (8×)
  BSS scoring R (resting), Time Bin 18 (85-90 TOTAL): 0 (9×) and 2 and 1 (2×)
Compound I-19 0.1-3 mg/kg IP, lorcaserin 1 mg/kg SC
  effect on the behavioral satiety sequence (BSS): preserved the BSS at the 1 mg/kg dose
[3]
  BSS scoring A (active), Time Bin 7 (30-35 TOTAL), AVG: 0.18
  BSS scoring A (active), Time Bin 8 (35-40 TOTAL), AVG: 0.21
  BSS scoring A (active), Time Bin 9 (40-45 TOTAL), AVG: 0.10
  BSS scoring A (active), Time Bin 10 (45-50 TOTAL), AVG: 0.16
  BSS scoring A (active), Time Bin 11 (50-55 TOTAL), AVG: 0.09
  BSS scoring A (active), Time Bin 12 (55-60 TOTAL), AVG: 0.10
  BSS scoring E (eating/drinking), Time Bin 7 (30-35 TOTAL), AVG: 0.68
  BSS scoring E (eating/drinking), Time Bin 8 (35-40 TOTAL), AVG: 0.68
  BSS scoring E (eating/drinking), Time Bin 9 (40-45 TOTAL), AVG: 0.74
  BSS scoring E (eating/drinking), Time Bin 10 (45-50 TOTAL), AVG: 0.78
  BSS scoring E (eating/drinking), Time Bin 11 (50-55 TOTAL), AVG: 0.75
  BSS scoring E (eating/drinking), Time Bin 12 (55-60 TOTAL), AVG: 0.83
  BSS scoring G (grooming), Time Bin 7 (30-35 TOTAL), AVG: 0.12
  BSS scoring G (grooming), Time Bin 8 (35-40 TOTAL), AVG: 0.09
  BSS scoring G (grooming), Time Bin 9 (40-45 TOTAL), AVG: 0.12
  BSS scoring G (grooming), Time Bin 10 (45-50 TOTAL), AVG: 0.01
  BSS scoring G (grooming), Time Bin 11 (50-55 TOTAL), AVG: 0.04
  BSS scoring G (grooming), Time Bin 12 (55-60 TOTAL), AVG: 0.05
  BSS scoring R (resting), Time Bin 7 (30-35 TOTAL), AVG: 0.03
  BSS scoring R (resting), Time Bin 8 (35-40 TOTAL), AVG: 0.03
  BSS scoring R (resting), Time Bin 9 (40-45 TOTAL), AVG: 0.04
  BSS scoring R (resting), Time Bin 10 (45-50 TOTAL), AVG: 0.06
  BSS scoring R (resting), Time Bin 11 (50-55 TOTAL), AVG: 0.12
  BSS scoring R (resting), Time Bin 12 (55-60 TOTAL), AVG: 0.02
[4]
  BSS scoring A (active), Time Bin 7 (30-35 TOTAL): 0 (4×) and 3 and 1 (3×) and 4 and 2 (2×) and 7
  BSS scoring A (active), Time Bin 8 (35-40 TOTAL): 4 (2×) and 2 (2×) and 1 (4×) and 3 (3×) and 0
  BSS scoring A (active), Time Bin 9 (40-45 TOTAL): 0 (7×) and 2 and 1 (3×) and 7
  BSS scoring A (active), Time Bin 10 (45-50 TOTAL): 2 (2×) and 4 and 0 (7×) and 10 and 1
  BSS scoring A (active), Time Bin 11 (50-55 TOTAL): 0 (6×) and 2 (2×) and 1 (3×) and 4
  BSS scoring A (active), Time Bin 12 (55-60 TOTAL): 2 (2×) and 0 (6×) and 1 (3×) and 5
  BSS scoring E (eating/drinking), Time Bin 7 (30-35 TOTAL): 6 (4×) and 7 (2×) and 8 (2×) and 5 and 3 and 10 (2×)
  BSS scoring E (eating/drinking), Time Bin 8 (35-40 TOTAL): 5 (3×) and 7 and 9 and 8 (3×) and 4 and 6 (2×) and 10
  BSS scoring E (eating/drinking), Time Bin 9 (40-45 TOTAL): 10 (2×) and 7 (2×) and 9 (2×) and 8 (3×) and 2 and 6 and 5
  BSS scoring E (eating/drinking), Time Bin 10 (45-50 TOTAL): 8 (2×) and 6 (2×) and 10 (4×) and 0 and 9 (2×) and 7
  BSS scoring E (eating/drinking), Time Bin 11 (50-55 TOTAL): 10 (3×) and 7 (3×) and 1 and 8 (4×) and 6
  BSS scoring E (eating/drinking), Time Bin 12 (55-60 TOTAL): 6 and 7 (2×) and 9 (5×) and 10 (3×) and 5
  BSS scoring G (grooming), Time Bin 7 (30-35 TOTAL): 3 and 1 (3×) and 2 (4×) and 0 (4×)
  BSS scoring G (grooming), Time Bin 8 (35-40 TOTAL): 1 (7×) and 0 (3×) and 2 (2×)
  BSS scoring G (grooming), Time Bin 9 (40-45 TOTAL): 0 (4×) and 1 (5×) and 2 and 3 and 4
  BSS scoring G (grooming), Time Bin 10 (45-50 TOTAL): 0 (11×) and 1
  BSS scoring G (grooming), Time Bin 11 (50-55 TOTAL): 0 (7×) and 1 (5×)
  BSS scoring G (grooming), Time Bin 12 (55-60 TOTAL): 2 (2×) and 0 (8×) and 1 (2×)
  BSS scoring R (resting), Time Bin 7 (30-35 TOTAL): 1 (3×) and 0 (9×)
  BSS scoring R (resting), Time Bin 8 (35-40 TOTAL): 0 (9×) and 1 (3×)
  BSS scoring R (resting), Time Bin 9 (40-45 TOTAL): 0 (9×) and 1 (2×) and 3
  BSS scoring R (resting), Time Bin 10 (45-50 TOTAL): 0 (8×) and 4 and 1 (3×)
  BSS scoring R (resting), Time Bin 11 (50-55 TOTAL): 0 (7×) and 2 (3×) and 7 and 1

Reference: patent publication US20250108038A1 (priority 2023, published 2025)
